One assay concerns the target GST-Bcl-2 (Homo sapiens, UniProt P10415). Kind of assay: TR-FRET binding assay, GST-Bcl-2 with F-Bak peptide probe. The settings on record: TR-FRET Binding Affinity, GST-Bcl-2, F-Bak peptide probe. In a few lines: (§1)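 Displacement of a fluorescein-labelled Bak peptide from the GST-tagged protein was followed by time-resolved FRET with a terbium anti-GST donor after 3 h incubation at room temperature. Inhibition constants were calculated with Wang's equation.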

The next assay concerns the target GST-Bcl-XL (Homo sapiens, UniProt Q07817). Kind of assay: TR-FRET binding assay, GST-Bcl-XL with F-Bak peptide probe. As to conditions: TR-FRET Binding Affinity, GST-Bcl-XL, F-Bak peptide probe. The procedure, abridged: as §1
For orientation: In TR-FRET formats the signal depends on donor and acceptor labels being close together.

In a further assay the test system is Canine platelets. Kind of assay: Platelet cell viability assay (platelet-rich plasma, Cell Titer Glo). Type of assay: cell-based. As to conditions: Canis lupus familiaris, 5 h, isolated canine platelets ex vivo, five hours at 37° C. The protocol: After the incubation, platelets were equilibrated to room temperature for 20 minutes and then an equal volume of Cell Titer Glo reagent (Promega Corporation) was added. Samples were mixed for two minutes and then allowed to equilibrate for an additional 10 minutes at room temperature. The luminescence generated from the samples was quantitated using an LJL Analyst plate reader.
The effect of compounds on platelet survival can be directly evaluated ex vivo by examining the viability of isolated canine platelets in the presence of various concentrations of compound.

Another assay relates to FL5.12/Bcl-2 cells. Kind of assay: FL5.12/Bcl-2 cell viability assay under IL-3 withdrawal (CellTitre Glo). It is filed as cell-based, murine. The settings on record: Mus musculus, IL-3 withdrawn 48 hrs, then 24 hrs with compound. In a few lines: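 Bcl-2-overexpressing murine FL5.12 transfectants underwent IL-3 removal for 48 hrs before a 24 hr compound treatment. Cell viability was quantified with CellTitre Glo.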

GST-Bcl-XL, sequence (Q07817 whole entry): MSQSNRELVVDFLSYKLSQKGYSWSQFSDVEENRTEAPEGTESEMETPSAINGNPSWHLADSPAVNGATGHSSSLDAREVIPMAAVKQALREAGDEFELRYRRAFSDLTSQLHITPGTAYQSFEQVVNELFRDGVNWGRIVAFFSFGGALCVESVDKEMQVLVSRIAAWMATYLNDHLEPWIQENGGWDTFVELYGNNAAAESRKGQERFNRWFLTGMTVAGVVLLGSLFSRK
GST-Bcl-2, sequence (P10415 whole entry): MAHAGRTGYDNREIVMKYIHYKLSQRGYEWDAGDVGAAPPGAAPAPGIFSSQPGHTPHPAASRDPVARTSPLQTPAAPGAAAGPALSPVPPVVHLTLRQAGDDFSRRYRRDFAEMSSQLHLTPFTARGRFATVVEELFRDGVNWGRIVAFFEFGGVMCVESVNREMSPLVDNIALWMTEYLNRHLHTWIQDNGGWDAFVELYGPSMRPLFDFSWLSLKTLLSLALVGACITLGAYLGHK

Take `CC1(C)CCC(CN2CCN(c3ccc(C(=O)NS(=O)(=O)c4ccc(NCCCN5CCOCC5)c([N+](=O)[O-])c4)c(Oc4ccccc4)c3)CC2)=C(c2ccc(Cl)cc2)C1` [Example 18, 4-(4-{[2-(4-chlorophenyl)-4,4-dimethylcyclohex-1-en-1-yl]methyl}piperazin-1-yl)-N-({4-[(3-morpholin-4-ylpropyl)amino]-3-nitrophenyl}sulfonyl)-2-phenoxybenzamide]: the Ki stood at 0.238 nM on GST-Bcl-2 and 8.13 nM on GST-Bcl-XL. Besides, the EC50 in the assay with Canine platelets was determined as 29700 nM; with FL5.12/Bcl-2 cells it was 123 nM.
As for `CN1CCC(Nc2ccc(S(=O)(=O)NC(=O)c3ccc(N4CCN(CC5=C(c6ccc(Cl)cc6)CC(C)(C)CC5)CC4)cc3Oc3ccc4[nH]ncc4c3)cc2[N+](=O)[O-])CC1` [Example 21, 4-(4-{[2-(4-chlorophenyl)-4,4-dimethylcyclohex-1-en-1-yl]methyl}piperazin-1-yl)-2-(1H-indazol-5-yloxy)-N-({4-[(1-methylpiperidin-4-yl)amino]-3-nitrophenyl}sulfonyl)benzamide], the Ki at GST-Bcl-2 was 5.43 nM; at GST-Bcl-XL, 190 nM. The EC50 in the assay with Canine platelets was over 50000 nM; in the assay on FL5.12/Bcl-2 cells it was 1010 nM.
Consider `CC1(C)CCC(CN2CCN(c3ccc(C(=O)NS(=O)(=O)c4ccc(NCCCN5CCOCC5)c([N+](=O)[O-])c4)c(Oc4ccc5c(c4)CCCN5)c3)CC2)=C(c2ccc(Cl)cc2)C1` [Example 22, 4-(4-{[2-(4-chlorophenyl)-4,4-dimethylcyclohex-1-en-1-yl]methyl}piperazin-1-yl)-N-({4-[(3-morpholin-4-ylpropyl)amino]-3-nitrophenyl}sulfonyl)-2-(1,2,3,4-tetrahydroquinolin-6-yloxy)benzamide], for which the Ki at GST-Bcl-2 was found to be 6.22 nM; on GST-Bcl-XL, 125 nM. The EC50 was over 50000 nM in the assay on Canine platelets and 825 nM with FL5.12/Bcl-2 cells.
Taken in the same sequence, the figures for `CN1CCC(Nc2ccc(S(=O)(=O)NC(=O)c3ccc(N4CCN(CC5=C(c6ccc(Cl)cc6)CC(C)(C)CC5)CC4)cc3Oc3ccc4c(c3)CCCN4)cc2[N+](=O)[O-])CC1` [Example 23, 4-(4-{[2-(4-chlorophenyl)-4,4-dimethylcyclohex-1-en-1-yl]methyl}piperazin-1-yl)-N-({4-[(1-methylpiperidin-4-yl)amino]-3-nitrophenyl}sulfonyl)-2-(1,2,3,4-tetrahydroquinolin-6-yloxy)benzamide] were 6.64 nM, 168 nM, over 50000 nM and 1440 nM.
Taken in the same sequence, the figures for `O=C(NS(=O)(=O)c1ccc(NCC2CCOCC2)c([N+](=O)[O-])c1)c1ccc(N2CCN(Cc3cc(CN4CCCC4)ccc3-c3ccc(Cl)cc3)CC2)cc1Oc1cccc2[nH]ccc12` [Example 24, 4-(4-{[4′-chloro-4-(pyrrolidin-1-ylmethyl)-1,1′-biphenyl-2-yl]methyl}piperazin-1-yl)-2-(1H-indol-4-yloxy)-N-({3-nitro-4-[(tetrahydro-2H-pyran-4-ylmethyl)amino]phenyl}sulfonyl)benzamide] were 0.194 nM, over 660 nM, over 50000 nM and 55 nM.
Regarding `O=C(NS(=O)(=O)c1ccc(NCC2CCOCC2)c([N+](=O)[O-])c1)c1ccc(N2CCN(Cc3cc(CCN4CCCC4)ccc3-c3ccc(Cl)cc3)CC2)cc1Oc1cccc2[nH]ccc12` [Example 25, 4-(4-{[4′-chloro-4-(2-pyrrolidin-1-ylethyl)-1,1′-biphenyl-2-yl]methyl}piperazin-1-yl)-2-(1H-indol-4-yloxy)-N-({3-nitro-4-[(tetrahydro-2H-pyran-4-ylmethyl)amino]phenyl}sulfonyl)benzamide], the values for the Ki on GST-Bcl-2 and at GST-Bcl-XL were 0.05 nM and 205 nM, respectively. Moreover, the EC50 is over 50000 nM in the assay on Canine platelets and 49 nM in the assay with FL5.12/Bcl-2 cells.
For `CC1(C)CCC(CN2CCN(c3ccc(C(=O)NS(=O)(=O)c4ccc(NC5CCN(C6CCCC6)CC5)c([N+](=O)[O-])c4)c(Oc4ccc5[nH]ccc5c4)c3)CC2)=C(c2ccc(Cl)cc2)C1` [Example 26, 4-(4-{[2-(4-chlorophenyl)-4,4-dimethylcyclohex-1-en-1-yl]methyl}piperazin-1-yl)-N-({4-[(1-cyclopentylpiperidin-4-yl)amino]-3-nitrophenyl}sulfonyl)-2-(1H-indol-5-yloxy)benzamide], in that order: 0.14 nM, over 660 nM, over 50000 nM and 35 nM.
For the molecule `O=C(NS(=O)(=O)c1ccc(NCC2CCOCC2)c([N+](=O)[O-])c1)c1ccc(N2CCN(Cc3ccccc3-c3ccc(Cl)cc3)CC2)cc1Oc1ccc2[nH]ccc2c1` [Example 40, 4-{4-[(4′-chloro-1,1′-biphenyl-2-yl)methyl]piperazin-1-yl}-2-(1H-indol-5-yloxy)-N-({3-nitro-4-[(tetrahydro-2H-pyran-4-ylmethyl)amino]phenyl}sulfonyl)benzamide], the Ki was 0.534 nM at GST-Bcl-2 and over 660 nM at GST-Bcl-XL. The figures for the EC50 in the assay with Canine platelets and in the assay on FL5.12/Bcl-2 cells were over 50000 nM and 165 nM, respectively.
For `O=C(NS(=O)(=O)c1ccc(NCC2CCOCC2)c([N+](=O)[O-])c1)c1ccc(N2CCN(Cc3ccccc3-c3ccc(Cl)cc3)CC2)cc1Oc1cccc2[nH]ccc12` [Example 45, 4-{4-[(4′-chloro-1,1′-biphenyl-2-yl)methyl]piperazin-1-yl}-2-(1H-indol-4-yloxy)-N-({3-nitro-4-[(tetrahydro-2H-pyran-4-ylmethyl)amino]phenyl}sulfonyl)benzamide], in that order: 0.828 nM, over 660 nM, over 50000 nM and 139 nM.
In the case of `CN(C)CCCNc1ccc(S(=O)(=O)NC(=O)c2ccc(N3CCN(Cc4ccccc4-c4ccc(Cl)cc4)CC3)cc2Oc2cccc3[nH]ccc23)cc1[N+](=O)[O-]` [Example 46, 4-{4-[(4′-chloro-1,1′-biphenyl-2-yl)methyl]piperazin-1-yl}-N-[(4-{[3-(dimethylamino)propyl]amino}-3-nitrophenyl)sulfonyl]-2-(1H-indol-4-yloxy)benzamide], the Ki at GST-Bcl-2 came out at 0.159 nM; on GST-Bcl-XL, 19 nM. The 50% effective concentration (EC50) in the assay with Canine platelets worked out at 30000 nM; with FL5.12/Bcl-2 cells, 41 nM.
`CC1(C)CCC(CN2CCN(c3ccc(C(=O)NS(=O)(=O)c4ccc(NCCCN5CCOCC5)c([N+](=O)[O-])c4)c(Oc4ccc5[nH]ccc5c4)c3)CC2)=C(c2ccc(Cl)cc2)C1` [Example 52, 4-(4-{[2-(4-chlorophenyl)-4,4-dimethylcyclohex-1-en-1-yl]methyl}piperazin-1-yl)-2-(1H-indol-5-yloxy)-N-({4-[(3-morpholin-4-ylpropyl)amino]-3-nitrophenyl}sulfonyl)benzamide]: the Ki on GST-Bcl-2 was determined as 0.239 nM; on GST-Bcl-XL, 79.8 nM. The results for the EC50 in the assay on Canine platelets and with FL5.12/Bcl-2 cells were over 50000 nM and 16 nM, respectively.
The molecule `CN1CCC(Nc2ccc(S(=O)(=O)NC(=O)c3ccc(N4CCN(CC5=C(c6ccc(Cl)cc6)CC(C)(C)CC5)CC4)cc3Oc3ccc4[nH]ccc4c3)cc2S(=O)(=O)C(F)(F)F)CC1` [Example 76, 4-(4-{[2-(4-chlorophenyl)-4,4-dimethylcyclohex-1-en-1-yl]methyl}piperazin-1-yl)-2-(1H-indol-5-yloxy)-N-({4-[(1-methylpiperidin-4-yl)amino]-3-[(trifluoromethyl)sulfonyl]phenyl}sulfonyl)benzamide] returned a Ki at GST-Bcl-XL of 3.29 nM. For the same molecule, the 50% effective concentration (EC50) in the assay with Canine platelets was found to be 8660 nM; in the assay with FL5.12/Bcl-2 cells, 39 nM.
For the molecule `CN1CCC(Nc2ccc(S(=O)(=O)NC(=O)c3ccc(N4CCN(CC5=C(c6ccc(Cl)cc6)CC(C)(C)CC5)CC4)cc3Oc3ccc4[nH]ccc4c3)cc2[N+](=O)[O-])CC1` [Example 98, 4-(4-{[2-(4-chlorophenyl)-4,4-dimethylcyclohex-1-en-1-yl]methyl}piperazin-1-yl)-2-(1H-indol-5-yloxy)-N-({4-[(1-methylpiperidin-4-yl)amino]-3-nitrophenyl}sulfonyl)benzamide], the Ki at GST-Bcl-XL is over 660 nM. Moreover, the 50% effective concentration (EC50) in the assay with Canine platelets turned out to be 17900 nM; in the assay with FL5.12/Bcl-2 cells, 4 nM.
In the case of `CN(C)CCCOc1ccc(S(=O)(=O)NC(=O)c2ccc(N3CCN(CC4=C(c5ccc(Cl)cc5)CC(C)(C)CC4)CC3)cc2Oc2cccc3[nH]ccc23)cc1[N+](=O)[O-]` [Example 106, 4-(4-{[2-(4-chlorophenyl)-4,4-dimethylcyclohex-1-en-1-yl]methyl}piperazin-1-yl)-N-({4-[3-(dimethylamino)propoxy]-3-nitrophenyl}sulfonyl)-2-(1H-indol-4-yloxy)benzamide], the EC50 with Canine platelets worked out at 15200 nM; with FL5.12/Bcl-2 cells, 9 nM.
`CN(C)CCOc1cccc(-c2ccc(Cl)cc2)c1CN1CCN(c2ccc(C(=O)NS(=O)(=O)c3ccc(NCC4CCOCC4)c([N+](=O)[O-])c3)c(Oc3ccc4[nH]ccc4c3)c2)CC1` [Example 129, 4-[4-({4′-chloro-3-[2-(dimethylamino)ethoxy]-1,1′-biphenyl-2-yl}methyl)piperazin-1-yl]-2-(1H-indol-5-yloxy)-N-({3-nitro-4-[(tetrahydro-2H-pyran-4-ylmethyl)amino]phenyl}sulfonyl)benzamide]: the figures for the EC50 in the assay with Canine platelets and in the assay with FL5.12/Bcl-2 cells were over 50000 nM and 21 nM, respectively.

As a reminder, the Ki is a measure of affinity in units of concentration, obtained from inhibition or displacement. High values mean lower affinity, low ones higher affinity. For orientation: EC50 means the concentration at which the effect is half-maximal.
